{"source": "patent US20260232610A1", "about": "(priority 2023, published 2026)", "key": {"[1]": {"test_system": "experimentally induced NE (Eimeria spp. and Clostridium perfringens challenge)", "type": "in vivo, male Ross 308 broilers"}, "[2]": {"test_system": "E. maxima", "assay": "Coccidiosis lesion scoring (Johnson and Reid, 0-4)", "type": "in vivo, male Ross 308 broilers", "conditions": "score 0 (no lesions) to 4 (severe lesions)"}, "[3]": {"test_system": "Eimeria (overall coccidiosis lesions)", "assay": "Overall coccidiosis lesions (TMLS)", "type": "in vivo, male Ross 308 broilers"}, "[4]": {"test_system": "necrotic enteritis (Clostridium perfringens inoculations)", "type": "in vivo, male Ross 308 broilers", "conditions": "for NE score: four chickens per pen"}, "[5]": {"test_system": "E. acervulina", "assay": "Coccidiosis lesion scoring (Johnson and Reid, 0-4)", "type": "in vivo, male Ross 308 broilers", "conditions": "score 0 (no lesions) to 4 (severe lesions)"}, "[6]": {"conditions": "compared to some amino acids such as glycine or arginine; cited from earlier work"}, "[7]": {"conditions": "day 16 to day 22, challenge period"}}, "note": "Read-outs that look alike come from different tables or passages of the source.", "data": [{"smiles": "N=C(N)NCC(=O)O", "note": "[GAA, guanidinoacetic acid]", "values": [{"measurement": "Effect on daily feed intake (DFI) over untreated birds", "setting": "[1]; any period (p>0.05) except a small effect in the pre-challenge period", "result": "no significant effect"}, {"measurement": "FCR compared with untreated birds", "setting": "[1]; challenge period and overall", "result": "significantly lower"}, {"measurement": "Daily weight gain (DWG) compared with IUC birds", "setting": "[1]; challenge period from day 16 to d22", "result": "significantly higher"}, {"measurement": "BW_D0 (body weight)", "setting": "[1]; day 0, before challenge, treatment mean", "result": 46}, {"measurement": "DFI_D0-D16 (daily feed intake)", "setting": "[1]; day 0 to day 16, pre-challenge", "result": 45.9}, {"measurement": "DWG_D0-D16 (daily weight gain)", "setting": "[1]; day 0 to day 16, pre-challenge", "result": 41.0}, {"measurement": "FCR_D0-D16 (feed conversion ratio)", "setting": "[1]; day 0 to day 16, pre-challenge", "result": 1.12}, {"measurement": "DFI_D0-D42 (daily feed intake)", "setting": "[1]; day 0 to day 42, overall", "result": 112.1}, {"measurement": "DWG_D0-D42 (daily weight gain)", "setting": "[1]; day 0 to day 42, overall", "result": 62.6}, {"measurement": "FCR_D0-42 (feed conversion ratio)", "setting": "[1]; day 0 to day 42, overall", "result": 1.80}, {"measurement": "BW_D16 (body weight)", "setting": "[1]; day 16, treatment mean", "result": 711}, {"measurement": "DFI_D16-D22 (daily feed intake)", "setting": "[1]; [7]", "result": 84.4}, {"measurement": "DWG_D16-D22 (daily weight gain)", "setting": "[1]; [7]", "result": 72.2}, {"measurement": "FCR_D16-D22 (feed conversion ratio)", "setting": "[1]; [7]", "result": 1.18}, {"measurement": "BW_D22 (body weight)", "setting": "[1]; day 22, after NE challenge, treatment mean", "result": 1161}, {"measurement": "DFI_D22-D34 (daily feed intake)", "setting": "[1]; day 22 to day 34", "result": 117.3}, {"measurement": "DWG_D22-D34 (daily weight gain)", "setting": "[1]; day 22 to day 34", "result": 75.3}, {"measurement": "FCR_D22-D34 (feed conversion ratio)", "setting": "[1]; day 22 to day 34", "result": 1.56}, {"measurement": "BW_D34 (body weight)", "setting": "[1]; day 34, treatment mean", "result": 2463}, {"measurement": "DFI_D34-D42 (daily feed intake)", "setting": "[1]; day 34 to day 42", "result": 191.0}, {"measurement": "DWG_D34-D42 (daily weight gain)", "setting": "[1]; day 34 to day 42", "result": 108.7}, {"measurement": "FCR_D34-D42 (feed conversion ratio)", "setting": "[1]; day 34 to day 42", "result": 1.77}, {"measurement": "BW_D42 (body weight)", "setting": "[1]; day 42, treatment mean", "result": 3332}, {"measurement": "Weight gained more than the negative control", "setting": "[1]; grower phase", "result": "approximately 9 g/day"}, {"measurement": "Weight gained more than the negative control", "setting": "[1]; overall", "result": "approximately 2 g/day"}, {"measurement": "Percentage of NE related mortalities", "setting": "[1]; overall, on par with antibiotics treated control", "result": "strongly reduced"}, {"measurement": "NE related mortality", "setting": "[1]; percentage of NE related mortalities, overall", "result": 3.33}, {"measurement": "E. maxima (lesion score)", "setting": "[2]; day 21", "result": 0.52}, {"measurement": "E. maxima (lesion score)", "setting": "[2]; day 22", "result": 0.88}, {"measurement": "E. maxima and coccidiosis lesions compared with untreated control", "setting": "[3]; day 21", "result": "lower amounts"}, {"measurement": "TMLS (overall coccidiosis lesions)", "setting": "[3]; day 21", "result": 0.60}, {"measurement": "TMLS (overall coccidiosis lesions)", "setting": "[3]; day 22", "result": 0.94}, {"measurement": "NE percentage (percentage of NE affected birds)", "setting": "[4]; day 21", "result": 85}, {"measurement": "NE score", "setting": "[4]; day 21", "result": 3.52}, {"measurement": "NE percentage (percentage of NE affected birds)", "setting": "[4]; day 22", "result": 73}, {"measurement": "NE scores and percentage of NE affected birds compared with untreated control", "setting": "[4]; day 22", "result": "lower NE scores and a lower percentage of NE affected birds"}, {"measurement": "NE score", "setting": "[4]; day 22", "result": 2.33}, {"measurement": "E. acervulina (lesion score)", "setting": "[5]; day 21", "result": 0.08}, {"measurement": "E. acervuline (lesion score)", "setting": "[5]; day 22", "result": 0.06}, {"measurement": "Solubility in water", "setting": "[6]", "result": "rather low solubility in water"}]}]}
